Tested on: A549 cells
Assay: [3H]-2DG uptake assay in A549 cells
Type: cell-based, human
Details: 10 min incubation with compound, mean ± s.d., n = 3
Description: To determine which of the 17 rapafucin hits inhibited the transporter activity of GLUT1, an orthogonal glucose uptake assay using 2-deoxy-D-[3H] glucose ([3H]-2DG), a nonhydrolyzable, radioactive glucose analog, was employed. Each hit was separately incubated with A549 cells for 10 min before the amount of [3H]-2DG taken up by the cells was measured using scintillation counting. […] The effect of JW11-D2 on uptake of [3H]-2DG in human red blood cells that exclusively express GLUT1 was then determined. Helgerson and Carruthers, J. Biol. Chem. 1987, 262, 5464-5475. […] To further improve the potency of JW11-D2, a structure-activity relationship (SAR) study was performed by synthesizing 21 new analogs of JW11-D2 using different amino acid building blocks.
The inhibitory activity of compounds on glucose transport was analyzed by measuring the cell uptake of [3H]-2DG as previously described. Ulanovskaya et al., Chem. Biol. 2011, 18, 222-230. Briefly, cells were washed twice and incubated in low-glucose medium for 10 min. Cells were added drugs and incubated for another 10 min before adding [3H]-2DG. After 10 min incubation with [3H]-2DG, cells were washed twice and lysed with 0.2 N NaOH plus 0.2% SDS. The cell lysate was transferred to a new tube containing 1 mL of optiphase supermix. Glucose uptake was quantified with a scintillation counter.

SMILES | IC50 [µM]
COc1ccc(CCC2OC(=O)C3CCCCN3C(=O)C(=O)C(C)(C)COC(=O)C=CCCN(C)C(=O)CNC(=O)C(C(C)C)N(C)C(=O)C(Cc3ccccc3)NC(=O)C(CC(C)C)N(C)C(=O)CCC(=O)Nc3cccc2c3)cc1OC (centres unmarked) [JW11-D2-4] | 0.0302 ± 0.0023
CCCC1C(=O)NCC(=O)N(C)CCC=CC(=O)OCC(C)(C)C(=O)C(=O)N2CCCCC2C(=O)OC(CCc2ccc(OC)c(OC)c2)c2cccc(c2)NC(=O)CCC(=O)N(C)C(CC(C)C)C(=O)NC(Cc2ccccc2)C(=O)N1C (centres unmarked) [JW11-D2-8] | > 3
CCC(C)C1C(=O)NCC(=O)N(C)CCC=CC(=O)OCC(C)(C)C(=O)C(=O)N2CCCCC2C(=O)OC(CCc2ccc(OC)c(OC)c2)c2cccc(c2)NC(=O)CCC(=O)N(C)C(CC(C)C)C(=O)NC(CCc2ccccc2)C(=O)N1C (centres unmarked) [JW11-D2-10] | > 3
CCC(C)C1C(=O)N(C)CC(=O)N(C)CCC=CC(=O)OCC(C)(C)C(=O)C(=O)N2CCCCC2C(=O)OC(CCc2ccc(OC)c(OC)c2)c2cccc(c2)NC(=O)CCC(=O)N(C)C(CC(C)C)C(=O)NC(Cc2ccccc2)C(=O)N1C (centres unmarked) [JW11-D2-1] | > 3
CCC(C)C1C(=O)NCC(=O)N(C)CCC=CC(=O)OCC(C)(C)C(=O)C(=O)N2CCCCC2C(=O)OC(CCc2ccc(OC)c(OC)c2)c2cccc(c2)NC(=O)CCC(=O)N(C)C(CC(C)C)C(=O)N(C)C(Cc2ccccc2)C(=O)N1C (centres unmarked) [JW11-D2-14] | 0.0385 ± 0.0047
CCCCC1C(=O)NCC(=O)N(C)CCC=CC(=O)OCC(C)(C)C(=O)C(=O)N2CCCCC2C(=O)OC(CCc2ccc(OC)c(OC)c2)c2cccc(c2)NC(=O)CCC(=O)N(C)C(CC(C)C)C(=O)NC(Cc2ccccc2)C(=O)N1C (centres unmarked) [JW11-D2-7] | > 3
COc1ccc(CCC2OC(=O)C3CCCCN3C(=O)C(=O)C(C)(C)COC(=O)C=CCCN(C)C(=O)CNC(=O)C(CC(C)C)N(C)C(=O)C(Cc3ccccc3)NC(=O)C(CC(C)C)N(C)C(=O)CCC(=O)Nc3cccc2c3)cc1OC (centres unmarked) [JW11-D2-9] | > 3
CCC(C)C1C(=O)NCC(=O)N(C)CCC=CC(=O)OCC(C)(C)C(=O)C(=O)N2CCCCC2C(=O)OC(CCc2ccc(OC)c(OC)c2)c2cccc(c2)NC(=O)CCC(=O)N(C)C(CC(C)C)C(=O)NC(Cc2ccc(O)cc2)C(=O)N1C (centres unmarked) [JW11-D2-13] | > 3
CCC(C)C1C(=O)N2CCCC2C(=O)N(C)CCC=CC(=O)OCC(C)(C)C(=O)C(=O)N2CCCCC2C(=O)OC(CCc2ccc(OC)c(OC)c2)c2cccc(c2)NC(=O)CCC(=O)N(C)C(CC(C)C)C(=O)NC(Cc2ccccc2)C(=O)N1C (centres unmarked) [JW11-D2-2] | > 3
CCC(C)C1C(=O)N2CCCC2C(=O)N(C)CCC=CC(=O)OCC(C)(C)C(=O)C(=O)N2CCCCC2C(=O)OC(CCc2ccc(OC)c(OC)c2)c2cccc(c2)NC(=O)CCC(=O)N(C)C(CC(C)C)C(=O)NC(Cc2ccccc2)C(=O)N1C (centres unmarked) [JW11-D2-3] | > 3

Further lines, results first:

IC50 [µM] | SMILES
> 3 | CCCC1C(=O)NC(Cc2ccccc2)C(=O)N(C)C(C(C)CC)C(=O)NCC(=O)N(C)CCC=CC(=O)OCC(C)(C)C(=O)C(=O)N2CCCCC2C(=O)OC(CCc2ccc(OC)c(OC)c2)c2cccc(c2)NC(=O)CCC(=O)N1C (centres unmarked) [JW11-D2-18]
> 3 | CCC(C)C1C(=O)NCC(=O)N(C)CCC=CC(=O)OCC(C)(C)C(=O)C(=O)N2CCCCC2C(=O)OC(CCc2ccc(OC)c(OC)c2)c2cccc(c2)NC(=O)CCC(=O)N(C)C(CC(C)C)C(=O)NC(CC(C)C)C(=O)N1C (centres unmarked) [JW11-D2-15]
> 3 | CCC(C)C1C(=O)NCC(=O)N(C)CCC=CC(=O)OCC(C)(C)C(=O)C(=O)N2CCCCC2C(=O)OC(CCc2ccc(OC)c(OC)c2)c2cccc(c2)NC(=O)CCC(=O)NC(CC(C)C)C(=O)NC(Cc2ccccc2)C(=O)N1C (centres unmarked) [JW11-D2-16]
> 3 | CCCCC1C(=O)NC(Cc2ccccc2)C(=O)N(C)C(C(C)CC)C(=O)NCC(=O)N(C)CCC=CC(=O)OCC(C)(C)C(=O)C(=O)N2CCCCC2C(=O)OC(CCc2ccc(OC)c(OC)c2)c2cccc(c2)NC(=O)CCC(=O)N1C (centres unmarked) [JW11-D2-19]
> 3 | CCC(C)C1C(=O)NCC(=O)N(C)CCC=CC(=O)OCC(C)(C)C(=O)C(=O)N2CCCCC2C(=O)OC(CCc2ccc(OC)c(OC)c2)c2cccc(c2)NC(=O)CCC(=O)N(C)C(Cc2ccccc2)C(=O)NC(Cc2ccccc2)C(=O)N1C (centres unmarked) [JW11-D2-21]
> 3 | CCC(C)C1C(=O)NC(Cc2ccccc2)C(=O)N(C)C(C(C)CC)C(=O)NCC(=O)N(C)CCC=CC(=O)OCC(C)(C)C(=O)C(=O)N2CCCCC2C(=O)OC(CCc2ccc(OC)c(OC)c2)c2cccc(c2)NC(=O)CCC(=O)N1C (centres unmarked) [JW11-D2-17]
0.0623 ± 0.0051 | CCC(C)C1C(=O)NCC(=O)N(C)CCC=CC(=O)OCC(C)(C)C(=O)C(=O)N2CCCCC2C(=O)OC(CCc2ccc(OC)c(OC)c2)c2cccc(c2)NC(=O)CCC(=O)N(C)C(C(C)C)C(=O)NC(Cc2ccccc2)C(=O)N1C (centres unmarked) [JW11-D2-20]

Source: patent publication US12649980B2, “Three-dimensional surface for protein and small molecule microarrays” (The Johns Hopkins University, priority 2019, dated 2026)
